This is an account of results in patent US5344930A, “Fluorine and phosphorous-containing amphiphilic molecules with surfactant properties” (Alliance Pharmaceutical Corp., priority 1993, dated 1994).

Usually viability stands for a read-out of living cells in per cent, often relative to untreated cells.

Data set [1] can be described thus: Growth and viability of lymphoblastoid cell cultures of the Namalva strain. Particulars: human, namalva lymphoblastoid cells, control = 100%; for activity: read-out: Cell Culture Growth %; for viability: read-out: Cell Culture Viability %. It is filed as cell-based.
Data set [2] concerns mice. Nature of the data set: Injection into the tail vein of mice (deaths, growth). It is filed as in vivo. The conditions noted are these: 500 μl in NaCl 9%, 10 mice of 20-25g, observed for 35 days.
A short description of data set [3]: Surface tension of aqueous solutions at 20° C. Type of data set: physicochemical. The conditions noted are these: (+0.3). How it is done:
(§1) The strong surface activity of the compounds encompassed by this invention is illustrated in particular by the strong lowering of the surface tension (γs) they cause when added to water, as shown by the examples of surface tensions (measured at 20° C. and expressed in milliNewton.meter^-1) and calculated spreading coefficients collected in the Table below: […]

Data set [4] can be described thus: Interfacial tension and spreading coefficient between water and perfluorodecalin. Type of data set: physicochemical. Particulars: for γi (interfacial tension between water and perfluorodecalin): (+0.3), 56 mNm^-1 in the absence of surfactant; for Spreading Coef.: -56 mNm^-1 in the absence of surfactant. How it is done: as §1
A short description of data set [5]: Fluorocarbon (F-decalin) emulsions: average particle size and stability. Type of data set: physicochemical. How it is done:
^a Emulsions prepared by microfluidization.
Additional stable perfluorodecalin (50% w/v) emulsions based on the perfluoroalkylated phosphatidylcholines 11 or 12 (2 or 3% w/v) as the sole surfactant have been prepared by sonication.
^a Emulsions prepared by sonication
^b The emulsions are stored at 25° C.
^c The emulsions are stored at 50° C.
^a All the emulsions are prepared by microfluidization and stored at
The new perfluoroalkylated surfactants were solubilized or dispersed into water. Then the fluorocarbon was added under agitation. Any emulsification method like sonication can be used but mechanical procedures such as microfluidization or high pressure homogenization are preferred. The emulsion obtained can be used as an O2 carrier. The significant stabilization effect which can be obtained by incorporating the new F-alkyl surfactants is illustrated for various emulsion formulations (see Tables above).

Setting [6] is: Table III, 1% compound + 2% EYP (Ref.: 3% EYP), 20% w/v F-decalin, 1 month at 25° C.
Setting [7] is: Table III, 1% compound + 2% EYP (Ref.: 3% EYP), 20% w/v F-decalin, sonication.
[8] abbreviates: Table III, 1% compound + 2% EYP (Ref.: 3% EYP), 20% w/v F-decalin, sonication, stored at 25° C.
Where [9] appears, read: Table I, 3% compound (Ref.: 3% EYP), 50% w/v F-decalin, 1 month at 50° C.
[10] abbreviates: Table I, 3% compound (Ref.: 3% EYP), 50% w/v F-decalin, microfluidization.
The mark [11] stands for this setting: Table IV, 0.66% compound + 1.33% EYP, 100% w/v F-decalin, stored at 50° C.

Where two headings read alike, the source gives them in different places.

`C[N+](C)(C)CCOP(=O)([O-])OCC(COC(=O)CCCCCCCCCCC(F)(F)C(F)(F)C(F)(F)C(F)(F)C(F)(F)C(F)(F)F)OC(=O)CCCCCCCCCCC(F)(F)C(F)(F)C(F)(F)C(F)(F)C(F)(F)C(F)(F)F` (racemic) [Compound 10, 1,2-di[(11-F-hexyl)undecaoyl] 3-[2'-(N,N,N-trimethylamino)ethyl] phosphoryl rac-glycerol]: in data set [1] (1 g/l in 9% of NaCl), the activity came to 99% and the viability was 95%. Also, the “concentration of which injection caused no deaths and did not perturb the normal growth” value in data set [2] was 30000 µg/mL.

With `O=P(OCCCCCCCCCCCC(F)(F)C(F)(F)C(F)(F)C(F)(F)C(F)(F)C(F)(F)F)(N1CCOCC1)N1CCOCC1` [Compound 3, [11-(F-hexyl)undecyl] dimorpholinohosphoramidate], in data set [3] (0.1 g/l in water), the “γs (surface tension)” value came out at 24.4 mNm^-1. Besides, in data set [4] (0.1 g/l in water), the “γi (interfacial tension between water and perfluorodecalin)” value was found to be 7.5 mNm^-1; the “Spreading Coef.” value is given as -0.9 mNm^-1. For the same molecule, in data set [5] (setting [6]), the “Relative Increase % (particle size)” value came to 50%. Moreover, in data set [5] (setting [7]), the “Average Particle Size After Preparation” value stood at 0.26 μm. For the same molecule, the “Average Particle Size After 1 month” value in data set [5] (setting [8]) worked out at 0.39 μm.

For `C[N+](C)(C)CCOP(=O)([O-])OCCCCCCCCCCCC(F)(F)C(F)(F)C(F)(F)C(F)(F)C(F)(F)C(F)(F)C(F)(F)C(F)(F)F` [Compound 6, [11-(F-octyl)undecyl] [2'-N,N,N trimethylamino ethyl] phosphate], the “γs (surface tension)” value in data set [3] (1 g/l in water) amounted to 30.0 mNm^-1. The “γi (interfacial tension between water and perfluorodecalin)” value in data set [4] (1 g/l in water) was 9.4 mNm^-1. The “Spreading Coef.” value in data set [4] (1 g/l in water) was -16.5 mNm^-1. The “concentration of which injection caused no deaths and did not perturb the normal growth” value in data set [2] was found to be 1000 µg/mL. Further, the entries for the “Relative Increase % (particle size)” value in data set [5] (setting [9]) and in data set [5] (setting [6]) were 44% and 110%, respectively. Besides, the “Average Particle Size After 1 month at 50° C.” value in data set [5] (setting [10]) amounted to 0.36 μm. Also, the figures for the “Average Particle Size After Preparation” value in data set [5] (setting [10]) and in data set [5] (setting [7]) were 0.25 μm and 0.17 μm, respectively. In addition, the “Average Particle Size After 1 month” value in data set [5] (setting [8]) is 0.36 μm.

As to `O=P(OCCC(F)(F)C(F)(F)C(F)(F)C(F)(F)C(F)(F)C(F)(F)F)(N1CCOCC1)N1CCOCC1` [Compound 1, [2-(F-hexyl)ethyl] dimorpholinophosphoramidate], the “γs (surface tension)” value in data set [3] (1 g/l in water) was 22.5 mNm^-1. Also, in data set [4] (1 g/l in water), the “γi (interfacial tension between water and perfluorodecalin)” value was 2.0 mNm^-1; the “Spreading Coef.” value was -1.6 mNm^-1.

Regarding `C[N+](C)(C)CCOP(=O)([O-])OCCC(F)(F)C(F)(F)C(F)(F)C(F)(F)C(F)(F)C(F)(F)C(F)(F)C(F)(F)F` [Compound 5, [2-(F-octyl)ethyl] [2'-N,N,N trimethylamino ethyl] phosphate], the “γs (surface tension)” value in data set [3] (1 g/l in water) is 23.0 mNm^-1. For the same molecule, the “γi (interfacial tension between water and perfluorodecalin)” value in data set [4] (1 g/l in water) is given as 4.5 mNm^-1. The “Spreading Coef.” value in data set [4] (1 g/l in water) is -4.6 mNm^-1. The activity in data set [1] (10 g/l in 9% of NaCl) is 96%. Besides, in data set [1] (10 g/l in 9% of NaCl), the viability turned out to be 102%. In data set [2], the “concentration of which injection caused no deaths and did not perturb the normal growth” value worked out at 1000 µg/mL. Moreover, the “emulsion stability (in words)” value in data set [5] (50% w/v F-decalin emulsions, 1% surfactant where stated) is “remain stable at 50 °C for at least one month”. For the same molecule, the “Average Particle Size After Preparation” value in data set [5] (Table I, 1% compound (Ref.: 1% EYP), 50% w/v F-decalin, microfluidization) was determined as 0.48 μm; in data set [5] (setting [10]), 0.20 μm; in data set [5] (setting [7]) it was 0.15 μm; in data set [5] (Table IV, 0.66% compound + 1.33% EYP (Ref.: 2% EYP), 100% w/v F-decalin, microfluidization), 0.6 μm. In addition, the “Relative Increase % (particle size)” value in data set [5] (Table I, 1% compound, 50% w/v F-decalin, 1 month at 50° C.) came to 14%; in data set [5] (setting [9]), 50%; in data set [5] (setting [6]) it was 100%; in data set [5] (setting [11]), 125%. The “Average Particle Size After 1 month at 50° C.” value in data set [5] (Table I, 1% compound, 50% w/v F-decalin, microfluidization) was 0.55 μm; in data set [5] (setting [10]), 0.30 μm. In addition, in data set [5] (setting [8]), the “Average Particle Size After 1 month” value amounted to 0.29 μm. Besides, the “Average Particle size After 3 months” value in data set [5] (Table IV, 0.66% compound + 1.33% EYP (Ref.: 2% EYP), 100% w/v F-decalin, stored at 50° C.) was 1.1 μm. The “Average Particle size After 8 months” value in data set [5] (setting [11]) is on record as 1.35 μm.

On to `C[N+](C)(C)CCOP(=O)([O-])OCC(COCCCCCCCCCCCC(F)(F)C(F)(F)C(F)(F)C(F)(F)F)OCCCCCCCCCCCC(F)(F)C(F)(F)C(F)(F)C(F)(F)F` (racemic) [Compound 13, 1,2-di [(11-F-butyl)undecyl] 3-[2'-(N,N,N-trimethylamino)ethylphosphoryl] rac-glycerol], for which, in data set [1] (1 g/l in 9% of NaCl), the activity was 55% and the viability came out at 91%. In addition, the “concentration of which injection caused no deaths and did not perturb the normal growth” value in data set [2] turned out to be 60000 µg/mL.

With `C[N+](C)(C)CCOP(=O)([O-])OCC(COC(=O)CCCCCCCCCCC(F)(F)C(F)(F)C(F)(F)C(F)(F)F)OC(=O)CCCCCCCCCCC(F)(F)C(F)(F)C(F)(F)C(F)(F)F` (racemic) [Compound 11, 1,2-di [(11-F-butyl)undecaoyl] 3-[2'-(N,N,N-trimethylamino)ethylphosphoryl] rac-glycerol], in data set [1] (1 g/l in 9% of NaCl), the activity came to 60% and the viability was 83%. Also, the “concentration of which injection caused no deaths and did not perturb the normal growth” value in data set [2] worked out at 100000 µg/mL. Further, the “Relative Increase % (particle size)” value in data set [5] (Table III, 0.66% compound + 1.33% EYP (Ref.: 2% EYP), 50% w/v F-decalin, 1 month at 50° C.) was determined as 35%. In data set [5] (Table III, 0.66% compound + 1.33% EYP (Ref.: 2% EYP), 50% w/v F-decalin, sonication), the “Average Particle Size After Preparation” value amounted to 0.37 μm. The “Average Particle Size After 1 month” value in data set [5] (Table III, 0.66% compound + 1.33% EYP (Ref.: 2% EYP), 50% w/v F-decalin, sonication, stored at 50° C.) stood at 0.50 μm. Besides, in data set [5] (perfluorodecalin (50% w/v) emulsions, 2 or 3% w/v sole surfactant, sonication), the “increase in average particle size” value is on record as 10%.

With `O=P(OCCC(F)(F)C(F)(F)C(F)(F)C(F)(F)C(F)(F)C(F)(F)C(F)(F)C(F)(F)F)(N1CCOCC1)N1CCOCC1` [Compound 2, [2-(F-octyl)ethyl] dimorpholinohosphoramidate], in data set [3] (1 g/l in water), the “γs (surface tension)” value turned out to be 22.5 mNm^-1. Further, in data set [4] (1 g/l in water), the “γi (interfacial tension between water and perfluorodecalin)” value was determined as 1.0 mNm^-1; the “Spreading Coef.” value is recorded as -0.6 mNm^-1. Further, in data set [1] (1 g/l in 9% of NaCl), the activity was 67% and the viability was 106%.

For the molecule `COCCOP(=O)(OCCOC)OCC(COC(=O)CCCCCCCCCCC(F)(F)C(F)(F)C(F)(F)C(F)(F)C(F)(F)C(F)(F)F)OC(=O)CCCCCCCCCCC(F)(F)C(F)(F)C(F)(F)C(F)(F)C(F)(F)C(F)(F)F` (racemic) [Compound 14, [1',2'-di [(11-F-hexyl)undecanoyl]rac-glyceryl] [di (2'-methoxy-ethyl)] phosphate], the “concentration of which injection caused no deaths and did not perturb the normal growth” value in data set [2] came to 10000 µg/mL.

Turning to `O=P(OCCCCCCCCCCCC(F)(F)C(F)(F)C(F)(F)C(F)(F)C(F)(F)C(F)(F)C(F)(F)C(F)(F)F)(N1CCOCC1)N1CCOCC1` [Compound 4, [11-(F-octyl)undecyl] dimorpholinohosphoramidate], the “γs (surface tension)” value in data set [3] (0.1 g/l in water) is 22.5 mNm^-1. Also, in data set [4] (0.1 g/l in water), the “γi (interfacial tension between water and perfluorodecalin)” value amounted to 1.4 mNm^-1; the “Spreading Coef.” value is listed as -1.0 mNm^-1. The “Relative Increase % (particle size)” value in data set [5] (setting [6]) is recorded as 50%. Besides, in data set [5] (setting [7]), the “Average Particle Size After Preparation” value amounted to 0.26 μm. For the same molecule, the “Average Particle Size After 1 month” value in data set [5] (setting [8]) is reported as 0.39 μm.
